Reference: PubChem BioAssay AID743336 (Broad Institute, 2014)
Records with an inconclusive call do not appear. Calls of active or inactive are those of the source.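 The calls were made as follows: active = fitted curve of rescue activity rises past 40% within the tested concentration range, in every replicate run; inconclusive = replicate runs disagree, some active and some not; inactive = all replicate runs inactive, including effects in the opposite direction.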

What was measured:
[1] = rescue of simvastatin myotoxicity in C2C12 – cell-based, differentiated C2C12, luminescence, dry powder, dose response (AID 743336); settings: C2C12 myotubes + simvastatin, ATP luminescence, 48 h
[2] = tested on: C2C12 myotubes + simvastatin, ATP luminescence, 48 h; experiment: as above

SMILES	rescue activity ([1]; at 19.5 µM (top of the series))	further results
CCCC#Cc1ccc([C@H]2[C@@H](C#N)N(S(=O)(=O)c3cccc(F)c3)[C@H]2CO)cc1	3.48% (inactive)	–
C[C@@H]1CN([C@@H](C)CO)C(=O)c2cc(NC(=O)Cc3cn(C)c4ccccc34)ccc2O[C@H]1CN(C)Cc1ccc(C(=O)Nc2ccccc2N)cc1	29.3% (inactive)	–
C[C@H]1CN([C@@H](C)CO)C(=O)Cc2cc(NC(=O)CCCCCC(=O)Nc3ccccc3N)ccc2O[C@@H]1CN(C)Cc1ccc(Oc2ccccc2)cc1	–	rescue activity ([1]; at 21 µM (top of the series)): 20% (inactive)
C[C@H]1CN([C@@H](C)CO)C(=O)Cc2cc(NC(=O)CCCCCC(=O)Nc3ccccc3N)ccc2O[C@H]1CN(C)Cc1ccc(C(F)(F)F)cc1	–	rescue activity ([1]; at 21 µM (top of the series)): 44.5% (inactive)
N#C[C@H]1[C@H](c2ccc(-c3cccc(F)c3)cc2)[C@@H](CO)N1C(=O)NC1CCCC1	33.1% (inactive)	–
C[C@@H]1CN([C@@H](C)CO)C(=O)Cc2cc(NC(=O)CCCCCC(=O)Nc3ccccc3N)ccc2O[C@@H]1CN(C)Cc1ccc(Oc2ccccc2)cc1	–	rescue activity ([1]; at 21 µM (top of the series)): -22.1% (inactive)
Cc1ccc(S(=O)(=O)N(C)C[C@@H]2Oc3ccc(NS(=O)(=O)c4ccc(Cl)cc4)cc3C(=O)N([C@H](C)CO)C[C@@H]2C)cc1	27.2% (inactive)	–
COc1ccc(S(=O)(=O)Nc2cccc3c2O[C@H](CN(C)C(=O)Nc2ccc(F)cc2)[C@H](C)CN([C@@H](C)CO)C3=O)cc1	–	AC40 [2]: 14.5 µM
C[C@@H]1CN([C@H](C)CO)C(=O)Cc2cc(NC(=O)C3CCCCC3)ccc2O[C@H]1CN(C)Cc1ccc(Cl)c(Cl)c1	24.8% (inactive)	–
C[C@H]1CN([C@@H](C)CO)C(=O)c2cc(N(C)C)ccc2O[C@@H]1CN(C)Cc1ccc(C(=O)Nc2ccccc2N)cc1	28.1% (inactive)	–
N#C[C@@H]1[C@H](c2ccc(-c3cccc(F)c3)cc2)[C@@H](CO)N1C(=O)NC1CCCC1	-10.7% (inactive)	–
C[C@@H]1CN([C@H](C)CO)C(=O)Cc2cc(NS(=O)(=O)c3cn(C)cn3)ccc2O[C@@H]1CN(C)Cc1ccc(Cl)c(Cl)c1	34.3% (inactive)	–
CCCNC(=O)N1[C@H](C#N)[C@@H](c2ccc(C3=CCCCC3)cc2)[C@@H]1CO	37.4% (inactive)	–
C[C@@H]1CN([C@H](C)CO)C(=O)c2cc(NC(=O)Nc3cccc4ccccc34)ccc2O[C@@H]1CN(C)Cc1ccc(C(=O)Nc2ccccc2N)cc1	–	AC40 [2]: 15.9 µM
O=C(C[C@H]1CC[C@@H]2[C@H](COC[C@H](O)CN2CCC(F)(F)F)O1)NCc1ccc(Oc2ccccc2)cc1	23.4% (inactive)	–
Cc1ccc(S(=O)(=O)Nc2ccc3c(c2)CC(=O)N([C@@H](C)CO)C[C@@H](C)[C@H](CN(C)Cc2ccc(-c4ccccc4)cc2)O3)cc1	–	AC40 [2]: 17.5 µM
N#C[C@H]1[C@H](c2ccc(C#Cc3ccc(F)cc3)cc2)[C@H](CO)N1c1nc(-c2ccccc2)cs1	38.1% (inactive)	–
C[C@@H]1CN([C@H](C)CO)C(=O)c2cccc(NC(=O)c3nc4ccccc4s3)c2O[C@@H]1CN(C)Cc1ccc(C(=O)Nc2ccccc2N)cc1	-3.35% (inactive)	–
N#C[C@H]1N[C@@H](CO)[C@@H]1c1ccc(-c2cccc(F)c2)cc1	–	rescue activity ([1]; at 21 µM (top of the series)): 0.836% (inactive)
N#C[C@@H]1[C@@H](c2ccccc2-c2ccc(F)cc2)[C@H](CO)N1C(=O)NC1CCCC1	35.5% (inactive)	–
C[C@H](CO)N1C[C@H](C)[C@H](CN(C)Cc2ccc(C(=O)Nc3ccccc3N)cc2)Oc2ccc(NC(=O)Nc3ccc(F)cc3)cc2CC1=O	-62.1% (inactive)	–
C[C@@H]1CN([C@@H](C)CO)C(=O)c2cccc(NC(=O)Nc3ccc4c(c3)OCO4)c2O[C@H]1CN(C)Cc1ccc(C(=O)Nc2ccccc2N)cc1	–	AC40 [2]: 16.2 µM

SMILES	rescue activity ([1]; at 19.5 µM (top of the series))	further results
COc1ccc(-c2ccc([C@@H]3[C@@H](C#N)N(C(=O)NC4CCCC4)[C@H]3CO)cc2)cc1	12.8% (inactive)	–
N#C[C@@H]1[C@@H](c2ccccc2)[C@H](CO)N1S(=O)(=O)c1ccc(-c2ccccc2)cc1	–	AC40 [2]: 10.6 µM
C[C@H](CO)N1C[C@H](C)[C@@H](CN(C)Cc2ccc(Oc3ccccc3)cc2)Oc2c(NC(=O)Nc3cccc4ccccc34)cccc2C1=O	26.8% (inactive)	–
N#C[C@@H]1[C@@H](c2ccc(-c3cccc(F)c3)cc2)[C@H](CO)N1C(=O)c1cccnc1	7.76% (inactive)	–
C[C@H]1CN([C@@H](C)CO)C(=O)Cc2cc(NC(=O)Nc3cccc4ccccc34)ccc2O[C@H]1CN(C)Cc1ccc(C(=O)Nc2ccccc2N)cc1	–	AC40 [2]: 9.64 µM
N#C[C@@H]1[C@@H](c2ccc(-c3ccc(F)cc3)cc2)[C@H](CO)N1C(=O)Cc1ccccc1	37.6% (inactive)	–
N#C[C@H]1[C@@H](c2ccc(-c3cccc(F)c3)cc2)[C@@H](CO)N1C(=O)NC1CCCC1	5.12% (inactive)	–
CC(C)CC#Cc1cnc2c(c1)C(=O)N([C@H](C)CO)C[C@H](C)[C@@H](CN(C)C(=O)Cc1ccccc1)O2	–	rescue activity ([1]; at 21 µM (top of the series)): -0.381% (inactive)
C[C@H](CO)N1C[C@H](C)[C@H](CN(C)Cc2ccc3c(c2)OCO3)Oc2ccc(NC(=O)CCCCCC(=O)Nc3ccccc3N)cc2CC1=O	–	rescue activity ([1]; at 18 µM (top of the series)): 27.2% (inactive)
C[C@H](CO)N1C[C@H](C)[C@H](CN(C)CC2CCCCC2)Oc2ccc(NC(=O)CCCCCC(=O)Nc3ccccc3N)cc2CC1=O	–	AC40 [2]: 9.21 µM
N#C[C@H]1[C@H](c2ccc(-c3cccc(F)c3)cc2)[C@H](CO)N1C(=O)NC1CCCC1	29.9% (inactive)	–
C[C@H]1CN([C@@H](C)CO)S(=O)(=O)c2ccc(C#CC3CC3)cc2O[C@H]1CN(C)C(=O)Nc1cc(F)ccc1F	23.2% (inactive)	–
CN1C(=O)c2cc(NC(=O)c3ccc(F)c(F)c3)ccc2OC[C@H]2O[C@@H](CC(=O)Nc3ccc4c(c3)COC4)CC[C@@H]21	29.3% (inactive)	–
C[C@H](CO)N1C[C@H](C)[C@H](CN(C)Cc2ccc(C(=O)Nc3ccccc3N)cc2)Oc2ccc(N(C)C)cc2C1=O	6.09% (inactive)	–
C[C@@H]1CN([C@@H](C)CO)C(=O)c2cc(NS(=O)(=O)c3ccc(Cl)cc3)ccc2O[C@H]1CN(C)C(=O)Nc1cccc2ccccc12	–	AC40 [2]: 14.6 µM
Cc1noc(C)c1S(=O)(=O)Nc1ccc2c(c1)CC(=O)N([C@H](C)CO)C[C@@H](C)[C@@H](CN(C)Cc1ccc(-c3ccccc3)cc1)O2	–	AC40 [2]: 13.9 µM
COc1ccc(S(=O)(=O)N(C)C[C@H]2Oc3c(NC(=O)Nc4ccccc4)cccc3C(=O)N([C@H](C)CO)C[C@H]2C)cc1	29.2% (inactive)	–
N#C[C@@H]1[C@@H](c2ccc(C#Cc3cccnc3)cc2)[C@@H](CO)N1C(=O)C1CCCC1	-15.7% (inactive)	–
N#C[C@H]1[C@H](c2ccc(C#CCC3CCCC3)cc2)[C@@H](CO)N1C(=O)CN1CCOCC1	28.6% (inactive)	–
C[C@H](CO)N1C[C@H](C)[C@H](CN(C)Cc2ccc(Oc3ccccc3)cc2)Oc2ccc(NC(=O)CCCCCC(=O)Nc3ccccc3N)cc2CC1=O	–	rescue activity ([1]; at 21 µM (top of the series)): -22.7% (inactive)
C[C@@H]1CN([C@H](C)CO)C(=O)c2cccc(NC(=O)Nc3ccc4c(c3)OCO4)c2O[C@H]1CN(C)Cc1ccc(C(=O)Nc2ccccc2N)cc1	–	AC40 [2]: 14.7 µM
CCS(=O)(=O)N1[C@H](C#N)[C@@H](c2ccc(-c3cccc(F)c3)cc2)[C@@H]1CO	–	rescue activity ([1]; at 21 µM (top of the series)): 10.1% (inactive)

SMILES	rescue activity ([1]; at 19.5 µM (top of the series))	further results
O=C(C[C@H]1CC[C@@H]2[C@H](COC[C@@H](O)CN2Cc2ccc(Oc3ccccc3)cc2)O1)N1CCCCC1	22.2% (inactive)	–
CCCNC(=O)N1[C@H](CO)[C@H](c2ccccc2)[C@@H]1C#N	-1.71% (inactive)	–
Cc1noc(C)c1S(=O)(=O)Nc1ccc2c(c1)CC(=O)N([C@H](C)CO)C[C@H](C)[C@@H](CN(C)Cc1ccc(C(F)(F)F)cc1)O2	–	AC40 [2]: 16 µM
C[C@H]1CN([C@@H](C)CO)C(=O)c2cc(C#Cc3ccncc3)cnc2O[C@@H]1CN(C)CC1CCCC1	20.2% (inactive)	–
COCC(=O)N1[C@H](C#N)[C@@H](c2ccc(-c3cccc(F)c3)cc2)[C@@H]1CO	–	rescue activity ([1]; at 21 µM (top of the series)): 7.78% (inactive)
N#C[C@@H]1[C@@H](c2ccc(-c3cccc(F)c3)cc2)[C@@H](CO)N1C(=O)NC1CCCC1	9.41% (inactive)	–
CC(C)=CCC/C(C)=C/CC/C(C)=C/CC/C(C)=C/CO	–	AC40 [2]: 4.38 µM
C[C@@H]1CN([C@H](C)CO)C(=O)Cc2cc(NS(=O)(=O)c3ccc(Cl)cc3)ccc2O[C@H]1CN(C)Cc1ccccc1	–	AC40 [2]: 15.3 µM
N#C[C@@H]1[C@@H](c2ccccc2-c2cccc(F)c2)[C@H](CO)N1C(=O)NC1CCCC1	35.9% (inactive)	–
N#C[C@@H]1[C@@H](c2ccc(C3=CCCCC3)cc2)[C@H](CO)N1C(=O)NC1CCCC1	33.7% (inactive)	–
N#C[C@@H]1[C@@H](c2ccc(C#CC3CCCC3)cc2)[C@H](CO)N1S(=O)(=O)c1ccccc1	–	AC40 [2]: 20 µM
C[C@H]1CN([C@@H](C)CO)C(=O)Cc2cc(NS(=O)(=O)c3ccc(Cl)cc3)ccc2O[C@@H]1CN(C)CC1CCCCC1	–	rescue activity ([1]; at 21 µM (top of the series)): 3.09% (inactive)
COc1ccc(C#Cc2cnc3c(c2)C(=O)N([C@H](C)CO)C[C@H](C)[C@H](CN(C)Cc2ccccc2)O3)cc1OC	32.2% (inactive)	–
N#C[C@H]1[C@@H](c2ccc(-c3cccc(F)c3)cc2)[C@H](CO)N1C(=O)NC1CCCC1	-7.45% (inactive)	–
CN(C)C(=O)c1cccc(-c2ccc([C@@H]3[C@@H](C#N)N(C(=O)C4CCCC4)[C@@H]3CO)cc2)c1	11.9% (inactive)	–
CCCNC(=O)N1[C@@H](C#N)[C@@H](c2ccc(-c3ccccc3F)cc2)[C@@H]1CO	–	rescue activity ([1]; at 21 µM (top of the series)): -7.41% (inactive)
C[C@H]1CN([C@@H](C)CO)S(=O)(=O)c2ccc(C#Cc3ccc(F)cc3)cc2O[C@@H]1CN(C)S(=O)(=O)c1cn(C)cn1	–	AC40 [2]: 18.9 µM
C[C@@H]1CN([C@H](C)CO)C(=O)Cc2cc(NC(=O)CCCCCC(=O)Nc3ccccc3N)ccc2O[C@@H]1CN(C)Cc1ccc(Oc2ccccc2)cc1	-50.8% (inactive)	–
C/C=C/c1ccc([C@H]2[C@@H](CO)N(C(=O)NC3CCCC3)[C@H]2C#N)cc1	5.47% (inactive)	–
C[C@@H]1CN([C@H](C)CO)C(=O)Cc2cc(NC(=O)CCCCCC(=O)Nc3ccccc3N)ccc2O[C@H]1CN(C)Cc1ccc(Oc2ccccc2)cc1	30.8% (inactive)	–
N#C[C@@H]1[C@H](c2ccc(-c3cccc(F)c3)cc2)[C@H](CO)N1C(=O)NC1CCCC1	-9.1% (inactive)	–
